Assay results as given in patent US11279733B2, “Peptide antibiotics” (priority 2017, dated 2022).
Values after ≈ are worked out from the molar mass of the structure shown. Read-outs that look alike come from different tables or passages of the source. Positions of bridges follow the written chain, without caps; N, C: chain ends. Non-standard residues stand in square brackets, D forms with d. Residues, ends and D or L forms follow the SMILES beside them. *: point of attachment. Decanoyl(3R-OH) = CCCCCCC[C@@H](O)CC(=O)*; dDab = NCC[C@@H](N)C(=O)O; Octanoyl = CCCCCCCC(=O)*; Dab = NCC[C@H](N)C(=O)O

Assays:
[1] = test system: P. aeruginosa GN_043, PmxR
Method in brief: (§1)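 Mid-log cultures grown in Mueller Hinton broth at 37° C were tested by 2-fold broth microdilution at 5×10^5 CFU/mL final. Compounds were dissolved in water and tested over a final range of 32 to 0.015 μg/mL.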

[2] = test system: P. aeruginosa GN_105, PmxR; details: GN 105, PmxR
Method in brief: as §1

[3] = test system: K. pneumoniae GN_102 PmxR; details: GN 102 PmxR
Method in brief: as §1

[4] = test system: K. pneumoniae ATCC 700603, MDR; details: ATCC 700603
Method in brief: as §1

[5] = test system: E. coli ATCC 25922; details: ATCC 25922
Method in brief: as §1

[6] = test system: A. baumannii GN_093 PmxR; details: GN 093 PmxR
Method in brief: as §1

[7] = test system: K. pneumoniae ATCC 13883; details: ATCC 13883
Method in brief: as §1

[8] = test system: K. pneumoniae ATCC BAA-2146, NDM-1 pos; details: ATCC BAA-2146
Method in brief: as §1

[9] = test system: A. baumannii ATCC 19606; details: ATCC 19606
Method in brief: as §1

[10] = test system: K. pneumoniae GN_106, PmxR; details: GN 106, PmxR
Method in brief: as §1

[11] = test system: P. aeruginosa ATCC 27853; details: ATCC 27853
Method in brief: as §1

[12] = test system: S. aureus ATCC 25923, MSSA; details: ATCC 25923
Method in brief: as §1

[13] = in vitro; details: human
Method in brief: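 4000 cells/well, 24 h attach (37 °C, 5% CO2); compound 24 h; 5 μM resazurin 2 h, 37 °C; fluorescence ex/em 560/590. CC50 by curve fit.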

## CCCCCCC[C@@H](O)CC(=O)N[C@H](CCN)C(=O)N[C@H]1CCNC(=O)[C@H](Cc2c[nH]c3ccccc23)NC(=O)[C@H](CCN)NC(=O)[C@H](CCN)NC(=O)[C@H](CC(C)C)NC(=O)[C@@H](Cc2c[nH]c3ccccc23)NC(=O)[C@H](CCN)NC1=O [compound 8127, 3(R)OH-nC9CO-D-Dab-cyc[L-Dab-L-Dab-L-Dab-D-Trp-L-Leu-L-Dab-L-Dab-L-Trp]] ({Decanoyl(3R-OH)}-[dDab][Dab][Dab][dW]L[Dab][Dab]W; lactam 2-C)
[1]; polymyxin-resistant
  MIC P. aeruginosa GN_043, PmxR: 2 µg/mL (≈ 1.73 µM)
[2]
  MIC P. aeruginosa GN_105, PmxR: 2 µg/mL (≈ 1.73 µM)
[3]
  MIC K. pneumoniae GN_102 PmxR: 16 µg/mL (≈ 13.8 µM)
[4]
  MIC K. pneumoniae ATCC 700603, MDR: 4 µg/mL (≈ 3.46 µM)
[5]
  MIC E. coli ATCC 25922: 2 µg/mL (≈ 1.73 µM)
[6]
  MIC A. baumannii GN_093 PmxR: 32 µg/mL (≈ 27.7 µM)
[7]
  MIC K. pneumoniae ATCC 13883: 16 µg/mL (≈ 13.8 µM)
[8]
  MIC K. pneumoniae ATCC BAA-2146, NDM-1 pos: 4 µg/mL (≈ 3.46 µM)
[9]
  MIC A. baumannii ATCC 19606: 16 µg/mL (≈ 13.8 µM)
[10]
  MIC K. pneumoniae GN_106, PmxR: 4 µg/mL (≈ 3.46 µM)
[11]
  MIC P. aeruginosa ATCC 27853: 2 µg/mL (≈ 1.73 µM)
[12]
  MIC S. aureus ATCC 25923, MSSA: 4 µg/mL (≈ 3.46 µM)
[13]
  CC50 at 24 h: 63 µM

## CCCCCCC[C@@H](O)CC(=O)N[C@H](CCN)C(=O)N[C@H]1CCNC(=O)[C@H](CC(C)C)NC(=O)[C@H](CCN)NC(=O)[C@H](CCN)NC(=O)[C@@H](Cc2ccccc2)NC(=O)[C@H](CC(C)C)NC(=O)[C@H](CCN)NC1=O [compound 9194, 3(R)-OH-nC9CO-D-Dab-cyc[L-Dab-L-Dab-L-Leu-D-Phe-L-Dab-L-Dab-L-Leu]] ({Decanoyl(3R-OH)}-[dDab][Dab][Dab]L[dF][Dab][Dab]L; lactam 2-C)
[1]; P. aeruginosa GN_043, PmxR
  MIC P. aeruginosa GN_043, PmxR: >32 µg/mL
[2]
  MIC P. aeruginosa GN_105, PmxR: >32 µg/mL
[3]
  MIC K. pneumoniae GN_102 PmxR: >32 µg/mL
[4]
  MIC K. pneumoniae ATCC 700603, MDR: >32 µg/mL
[5]
  MIC E. coli ATCC 25922: 32 µg/mL (≈ 30.6 µM)
[6]
  MIC A. baumannii GN_093 PmxR: >32 µg/mL
[7]
  MIC K. pneumoniae ATCC 13883: >32 µg/mL
[8]
  MIC K. pneumoniae ATCC BAA-2146, NDM-1 pos: >32 µg/mL
[9]
  MIC A. baumannii ATCC 19606: >32 µg/mL
[10]
  MIC K. pneumoniae GN_106, PmxR: >32 µg/mL
[11]
  MIC P. aeruginosa ATCC 27853: 32 µg/mL (≈ 30.6 µM)
[12]
  MIC S. aureus ATCC 25923, MSSA: 32 µg/mL (≈ 30.6 µM)
[13]
  CC50 at 24 h: > 300 µM

## CCCCCCCC(=O)N[C@H](CCN)C(=O)N[C@H]1CCNC(=O)[C@H](Cc2c[nH]c3ccccc23)NC(=O)[C@H](CCN)NC(=O)[C@H](CCN)NC(=O)[C@H](CC(C)C)NC(=O)[C@@H](Cc2ccccc2)NC(=O)[C@H](CCN)NC1=O [compound 8901, nC7CO-D-Dab-cyc[L-Dab-L-Dab-D-Phe-L-Leu-L-Dab-L-Dab-L-Trp]] (Octanoyl-[dDab][Dab][Dab][dF]L[Dab][Dab]W; lactam 2-C)
[1]; polymyxin-resistant
  MIC P. aeruginosa GN_043, PmxR: 2 µg/mL (≈ 1.86 µM)
[2]
  MIC P. aeruginosa GN_105, PmxR: 8 µg/mL (≈ 7.45 µM)
[3]
  MIC K. pneumoniae GN_102 PmxR: 32 µg/mL (≈ 29.8 µM)
[4]
  MIC K. pneumoniae ATCC 700603, MDR: 8 µg/mL (≈ 7.45 µM)
[5]
  MIC E. coli ATCC 25922: 8 µg/mL (≈ 7.45 µM)
[6]
  MIC A. baumannii GN_093 PmxR: >32 µg/mL
[7]
  MIC K. pneumoniae ATCC 13883: 8 µg/mL (≈ 7.45 µM)
[8]
  MIC K. pneumoniae ATCC BAA-2146, NDM-1 pos: 8 µg/mL (≈ 7.45 µM)
[9]
  MIC A. baumannii ATCC 19606: 32 µg/mL (≈ 29.8 µM)
[10]
  MIC K. pneumoniae GN_106, PmxR: 32 µg/mL (≈ 29.8 µM)
[11]
  MIC P. aeruginosa ATCC 27853: 2 µg/mL (≈ 1.86 µM)
[12]
  MIC S. aureus ATCC 25923, MSSA: 16 µg/mL (≈ 14.9 µM)
[13]
  CC50 at 24 h: > 300 µM
